Results from US20240124442A1, “TRICYCLIC-AMIDO-BICYCLIC PRMT5 INHIBITORS” (AMGEN INC., priority 2021, published 2024).

Key:
HCT116 MTAP null cells = assay: HCT116 MTAP null cell line proliferation / cell viability (CellTiter-Glo, 6 days); type: cell-based; conditions: 144 h; HCT116 MTAP null cells, 6 days treatment, CellTiter-Glo cell viability; read-out: HCT-116 MTAP null IC50
Method in brief: (§1)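 Viability read by CellTiter-Glo luminescence after 6 days of compound treatment of HCT116 WT and MTAP-null cells (RPMI 1640, 10% FBS). Dose series were 1:3 steps from 1 or 10 μM (8–9 points), or 1:2 steps from 10 or 50 μM (22 points). IC50 from 4-parameter logistic or fixed-slope sigmoidal fit.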

HCT116 WT cells = assay: HCT116 WT (parent) cell line proliferation / cell viability (CellTiter-Glo, 6 days); type: cell-based; conditions: Homo sapiens, HCT-116, 144 h, 6 days treatment
Method in brief: as §1

Compound: CN(C(=O)c1cc2c3c(c(N)nc2cn1)COC3)[C@H]1COc2cc(Cl)ccc21 (single isomer, unassigned) [Example 334]
- IC50 (HCT116 MTAP null cells): 11.9 µM
- IC50 (HCT116 WT cells): 50 µM

Compound: CN(C(=O)c1cc2c3c(c(N)nc2cn1)COC3)[C@@H]1COc2nc(C(F)(F)F)ccc21 (single isomer, unassigned) [Example 335]
- IC50 (HCT116 MTAP null cells): 0.272 µM
- IC50 (HCT116 WT cells): 10.9 µM

Compound: CN(C(=O)c1cc2c3c(c(N)nc2cn1)COC3)[C@H]1COc2nc(C(F)(F)F)ccc21 (single isomer, unassigned) [Example 336]
- IC50 (HCT116 MTAP null cells): 11.9 µM
- IC50 (HCT116 WT cells): 50 µM

Compound: [2H]C([2H])([2H])N(C(=O)c1cc2c3c(c(N)nc2cn1)COC3)[C@@H]1COc2cc(C(F)(F)F)ccc21 (single isomer, unassigned) [Example 337]
- IC50 (HCT116 MTAP null cells): 0.041 µM
- IC50 (HCT116 WT cells): 2.09 µM

Compound: [2H]C([2H])([2H])N(C(=O)c1cc2c3c(c(N)nc2cn1)COC3)[C@H]1COc2cc(C(F)(F)F)ccc21 (single isomer, unassigned) [Example 338]
- IC50 (HCT116 MTAP null cells): 4.67 µM
- IC50 (HCT116 WT cells): 37.5 µM

Compound: CN(C(=O)c1cc2c3c(c(N)nc2cn1)COC3)[C@@H]1COc2cc(S(C)(=O)=O)ccc21 (single isomer, unassigned) [Example 339]
- IC50 (HCT116 MTAP null cells): 0.237 µM
- IC50 (HCT116 WT cells): 8.78 µM

Compound: CN(C(=O)c1cc2c3c(c(N)nc2cn1)COC3)[C@H]1COc2cc(S(C)(=O)=O)ccc21 (single isomer, unassigned) [Example 340]
- IC50 (HCT116 MTAP null cells): 7.32 µM
- IC50 (HCT116 WT cells): 50 µM

Compound: CN(C(=O)c1cc2c3c(c(N)nc2cn1)COC3)[C@@H]1CCc2cc(OC(F)(F)F)ccc21 (single isomer, unassigned) [Example 341]
- IC50 (HCT116 MTAP null cells): 0.184 µM
- IC50 (HCT116 WT cells): 6.24 µM

Compound: CN(C(=O)c1cc2c3c(c(N)nc2cn1)COC3)[C@H]1CCc2cc(OC(F)(F)F)ccc21 (single isomer, unassigned) [Example 342]
- IC50 (HCT116 MTAP null cells): 4.45 µM
- IC50 (HCT116 WT cells): 28 µM

Compound: CN(C(=O)c1cc2c3c(c(N)nc2cn1)COC3)[C@@H]1COc2cc(S(F)(F)(F)(F)F)ccc21 (single isomer, unassigned) [Example 343]
- IC50 (HCT116 MTAP null cells): 0.019 µM
- IC50 (HCT116 WT cells): 0.581 µM

Compound: CN(C(=O)c1cc2c3c(c(N)nc2cn1)COC3)[C@H]1COc2cc(S(F)(F)(F)(F)F)ccc21 (single isomer, unassigned) [Example 344]
- IC50 (HCT116 MTAP null cells): 1.06 µM
- IC50 (HCT116 WT cells): 19.4 µM

Compound: CN(C(=O)c1cc2c3c(c(N)nc2cn1)COC3)[C@@H]1COc2cc(Br)ccc21 (single isomer, unassigned) [Example 345]
- IC50 (HCT116 MTAP null cells): 0.091 µM
- IC50 (HCT116 WT cells): 5.44 µM

Compound: CN(C(=O)c1cc2c3c(c(N)nc2cn1)COC3)[C@H]1COc2cc(Br)ccc21 (single isomer, unassigned) [Example 346]
- IC50 (HCT116 MTAP null cells): 6.01 µM
- IC50 (HCT116 WT cells): 37 µM

Compound: CN(C(=O)c1cc2c3c(c(N)nc2cc1F)COC3)[C@@H]1COc2cc(Cl)ccc21 (single isomer, unassigned) [Example 347]
- IC50 (HCT116 MTAP null cells): 0.086 µM
- IC50 (HCT116 WT cells): 3.22 µM

Compound: CN(C(=O)c1cc2c3c(c(N)nc2cc1F)COC3)[C@H]1COc2cc(Cl)ccc21 (single isomer, unassigned) [Example 348]
- IC50 (HCT116 MTAP null cells): 1.9 µM
- IC50 (HCT116 WT cells): 23.4 µM

Compound: CN(C(=O)c1cc2c3c(c(N)nc2cc1F)COC3)[C@@H]1CCc2nc(C(F)(F)F)ccc21 (single isomer, unassigned) [Example 349]
- IC50 (HCT116 MTAP null cells): 0.039 µM
- IC50 (HCT116 WT cells): 2.24 µM

Compound: CN(C(=O)c1cc2c3c(c(N)nc2cc1F)COC3)[C@H]1CCc2nc(C(F)(F)F)ccc21 (single isomer, unassigned) [Example 350]
- IC50 (HCT116 MTAP null cells): 3.17 µM
- IC50 (HCT116 WT cells): 50 µM

Compound: CN(C(=O)c1cc2c3c(c(N)nc2cc1F)COC3)[C@@H]1COc2nc(C(F)(F)F)ccc21 (single isomer, unassigned) [Example 351]
- IC50 (HCT116 MTAP null cells): 0.083 µM
- IC50 (HCT116 WT cells): 2.85 µM

Compound: CN(C(=O)c1cc2c3c(c(N)nc2cc1F)COC3)[C@H]1COc2nc(C(F)(F)F)ccc21 (single isomer, unassigned) [Example 352]
- IC50 (HCT116 MTAP null cells): 3.25 µM
- IC50 (HCT116 WT cells): 50 µM

Compound: CN(C(=O)c1cc2c3c(c(N)nc2cc1F)COC3)[C@@H]1COc2cc(S(C)(=O)=O)ccc21 (single isomer, unassigned) [Example 353]
- IC50 (HCT116 MTAP null cells): 0.032 µM
- IC50 (HCT116 WT cells): 1.38 µM
